Experimental data as given in PubChem BioAssay (NCI).
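Here, GI50 denotes the concentration required for 50% inhibition of growth. At the TGI there is no net growth.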

Tests used:
Test in all cases: inhibition of tumour cell growth, NCI panel, 384-well format
A498 renal = system: A498 renal
A549 NSCLC = system: A549 NSCLC
ACHN renal = system: ACHN renal
BT-549 breast = system: BT-549 breast
CAKI-1 renal = system: CAKI-1 renal
COLO 205 colon = system: COLO 205 colon
DU-145 prostate = system: DU-145 prostate
EKVX NSCLC = system: EKVX NSCLC
HCC-2998 colon = system: HCC-2998 colon
HCT-116 colon = system: HCT-116 colon
HCT-15 colon = system: HCT-15 colon
HL-60(TB) leukemia = system: HL-60(TB) leukemia
HOP-62 NSCLC = system: HOP-62 NSCLC
HOP-92 NSCLC = system: HOP-92 NSCLC
HS 578T breast = system: HS 578T breast
HT29 colon = system: HT29 colon
IGROV1 ovarian = system: IGROV1 ovarian
KM12 colon = system: KM12 colon
LOX IMVI melanoma = system: LOX IMVI melanoma
M14 melanoma = system: M14 melanoma
MALME-3M melanoma = system: MALME-3M melanoma
MCF7 breast = system: MCF7 breast
MDA-MB-231 breast = system: MDA-MB-231 breast
MDA-MB-435 melanoma = system: MDA-MB-435 melanoma
MDA-MB-468 breast = system: MDA-MB-468 breast
MOLT-4 leukemia = system: MOLT-4 leukemia
NCI-H226 lung = system: NCI-H226 lung
NCI-H23 lung = system: NCI-H23 lung
NCI-H322M lung = system: NCI-H322M lung
NCI-H460 NSCLC = system: NCI-H460 NSCLC
NCI-H522 lung = system: NCI-H522 lung
NCI/ADR-RES ovarian = system: NCI/ADR-RES ovarian
OVCAR-3 ovarian = system: OVCAR-3 ovarian
OVCAR-4 ovarian = system: OVCAR-4 ovarian
OVCAR-5 ovarian = system: OVCAR-5 ovarian
OVCAR-8 ovarian = system: OVCAR-8 ovarian
PC-3 prostate = system: PC-3 prostate
RPMI-8226 leukemia = system: RPMI-8226 leukemia
RXF 393 renal = system: RXF 393 renal
SF-268 CNS = system: SF-268 CNS
SF-295 CNS = system: SF-295 CNS
SF-539 CNS = system: SF-539 CNS
SK-MEL-28 melanoma = system: SK-MEL-28 melanoma
SK-MEL-5 melanoma = system: SK-MEL-5 melanoma
SK-OV-3 ovarian = system: SK-OV-3 ovarian
SN12C renal = system: SN12C renal
SNB-19 CNS = system: SNB-19 CNS
SNB-75 CNS = system: SNB-75 CNS
SR leukemia = system: SR leukemia
T-47D breast = system: T-47D breast
TK-10 renal = system: TK-10 renal
U251 glioblastoma = system: U251 glioblastoma
UACC-257 melanoma = system: UACC-257 melanoma
UACC-62 melanoma = system: UACC-62 melanoma

SMILES: Cc1ccc(F)c(NC(=O)Nc2ccc(-c3cccc4[nH]nc(N)c34)cc2)c1
- GI50 (A498 renal): 2.03 µM
- TGI (A498 renal): 4.58 µM
- GI50 (A549 NSCLC): 3.14 µM
- TGI (A549 NSCLC): 9.44 µM
- GI50 (ACHN renal): 2.13 µM
- TGI (ACHN renal): 5.05 µM
- GI50 (BT-549 breast): 1.99 µM
- TGI (BT-549 breast): 3.79 µM
- GI50 (CAKI-1 renal): 2.84 µM
- TGI (CAKI-1 renal): 7.73 µM
- GI50 (COLO 205 colon): 1.93 µM
- TGI (COLO 205 colon): 4.29 µM
- GI50 (DU-145 prostate): 1.73 µM
- TGI (DU-145 prostate): 3.55 µM
- GI50 (EKVX NSCLC): 2.13 µM
- TGI (EKVX NSCLC): 4.53 µM
- GI50 (HCC-2998 colon): 1.27 µM
- TGI (HCC-2998 colon): 2.65 µM
- GI50 (HCT-116 colon): 1.99 µM
- TGI (HCT-116 colon): 4.6 µM
- GI50 (HCT-15 colon): 1.82 µM
- TGI (HCT-15 colon): 4.3 µM
- GI50 (HL-60(TB) leukemia): 1.27 µM
- TGI (HL-60(TB) leukemia): 2.54 µM
- GI50 (HOP-62 NSCLC): 1.94 µM
- TGI (HOP-62 NSCLC): 5.5 µM
- GI50 (HOP-92 NSCLC): 3.96 µM
- TGI (HOP-92 NSCLC): 12.6 µM
- GI50 (HS 578T breast): 2.19 µM
- TGI (HS 578T breast): 5.31 µM
- GI50 (HT29 colon): 1.77 µM
- TGI (HT29 colon): 4.58 µM
- GI50 (IGROV1 ovarian): 1.78 µM
- TGI (IGROV1 ovarian): 3.79 µM
- GI50 (KM12 colon): 0.432 µM
- TGI (KM12 colon): 3.87 µM
- GI50 (LOX IMVI melanoma): 1.85 µM
- TGI (LOX IMVI melanoma): 3.32 µM
- GI50 (M14 melanoma): 1.96 µM
- TGI (M14 melanoma): 4.86 µM
- GI50 (MALME-3M melanoma): 1.93 µM
- TGI (MALME-3M melanoma): 4.24 µM
- GI50 (MCF7 breast): 1.08 µM
- TGI (MCF7 breast): 4.28 µM
- GI50 (MDA-MB-231 breast): 3.83 µM
- TGI (MDA-MB-231 breast): 15.2 µM
- GI50 (MDA-MB-435 melanoma): 2.16 µM
- TGI (MDA-MB-435 melanoma): 4.25 µM
- GI50 (MDA-MB-468 breast): 1.8 µM
- TGI (MDA-MB-468 breast): 3.69 µM
- GI50 (MOLT-4 leukemia): 1.91 µM
- TGI (MOLT-4 leukemia): 3.35 µM
- GI50 (NCI-H226 lung): 2.44 µM
- TGI (NCI-H226 lung): 9.13 µM
- GI50 (NCI-H23 lung): 1.71 µM
- TGI (NCI-H23 lung): 3.4 µM
- GI50 (NCI-H322M lung): 2.15 µM
- TGI (NCI-H322M lung): 5.5 µM
- GI50 (NCI-H460 NSCLC): 1.61 µM
- TGI (NCI-H460 NSCLC): 3.02 µM
- GI50 (NCI-H522 lung): 2.05 µM
- TGI (NCI-H522 lung): 3.54 µM
- GI50 (NCI/ADR-RES ovarian): 2.43 µM
- TGI (NCI/ADR-RES ovarian): 9.01 µM
- GI50 (OVCAR-3 ovarian): 1.75 µM
- TGI (OVCAR-3 ovarian): 3.25 µM
- GI50 (OVCAR-4 ovarian): 1.6 µM
- TGI (OVCAR-4 ovarian): 3.98 µM
- GI50 (OVCAR-5 ovarian): 1.82 µM
- TGI (OVCAR-5 ovarian): 3.89 µM
- GI50 (OVCAR-8 ovarian): 2.01 µM
- TGI (OVCAR-8 ovarian): 9.04 µM
- GI50 (PC-3 prostate): 2.31 µM
- TGI (PC-3 prostate): 4.82 µM
- GI50 (RPMI-8226 leukemia): 1.76 µM
- TGI (RPMI-8226 leukemia): 3.16 µM
- GI50 (RXF 393 renal): 1.56 µM
- TGI (RXF 393 renal): 3.59 µM
- GI50 (SF-268 CNS): 2.3 µM
- TGI (SF-268 CNS): 7.63 µM
- GI50 (SF-295 CNS): 3.17 µM
- TGI (SF-295 CNS): 10.5 µM
- GI50 (SF-539 CNS): 1.44 µM
- TGI (SF-539 CNS): 3.49 µM
- GI50 (SK-MEL-28 melanoma): 4.44 µM
- TGI (SK-MEL-28 melanoma): 15.6 µM
- GI50 (SK-MEL-5 melanoma): 1.34 µM
- TGI (SK-MEL-5 melanoma): 2.67 µM
- GI50 (SK-OV-3 ovarian): 2.42 µM
- TGI (SK-OV-3 ovarian): 11.6 µM
- GI50 (SN12C renal): 1.26 µM
- TGI (SN12C renal): 2.89 µM
- GI50 (SNB-19 CNS): 3.26 µM
- TGI (SNB-19 CNS): 8.97 µM
- GI50 (SNB-75 CNS): 2.67 µM
- TGI (SNB-75 CNS): 9.2 µM
- GI50 (SR leukemia): 1.49 µM
- TGI (SR leukemia): 2.82 µM
- GI50 (T-47D breast): 2.85 µM
- TGI (T-47D breast): 14.2 µM
- GI50 (TK-10 renal): 2.07 µM
- TGI (TK-10 renal): 5.48 µM
- GI50 (U251 glioblastoma): 2.27 µM
- TGI (U251 glioblastoma): 4.83 µM
- GI50 (UACC-257 melanoma): 1.83 µM
- TGI (UACC-257 melanoma): 3.95 µM
- GI50 (UACC-62 melanoma): 2.31 µM
- TGI (UACC-62 melanoma): 5.7 µM
